According to US12577584B2, “Non-HLA matched humanized NSG mouse model with patient-derived xenograft” (The Jackson Laboratory, priority 2015, dated 2026):
Entries after “also recorded” stand apart in the source; their conditions may differ.

Assays:
[1] = tested on: colon cancer CN1572P5 PDX; assay: Tumor growth of colon cancer CN1572P5 PDX in non-HLA matched Hu-CD34 NSG mice; type: in vivo, mouse; details: tumor growth curves over 21 days; 5-FU i.v. about 20 mg/kg Q7dx2; Avastin i.p. about 10 mg/kg twice a week, 5 doses
Protocol: To test whether the subject Hu-CD34 NSG™ mice with non-HLA matched PDX can be used to evaluate drug efficacy against the PDX, using clinically relevant standard-of-care (SOC) treatments, tumor growth curves over 21 days were obtained for a negative control/vehicle group, and two treatment groups using 5-FU and Avastin, respectively, against the colon cancer CN1572P5 PDX. Specifically, 5-FU was administered i.v. at a dose of about 20 mg/kg body weight, Q7d×2 (every 7 days, 2 total doses). Avastin was administered i.p. at a dose of about 10 mg/kg body weight, twice a week, 5 total doses. Vehicle (D5W) was administered i.v., Q7d×3.

[2] = tested on: CD45+CD8+ infiltrating T lymphocytes in PDX tumor samples; assay: Immuno-staining of treated PDX tumor samples for CD45+CD8+ infiltrating T lymphocytes; type: in vivo, mouse; details: compared to chemotherapy alone
Protocol: In a similar experiment, immuno-staining was conducted on PDX tumor samples treated by chemotherapy alone, anti-PD1 agent Keytruda, and anti-CTLA4 agent ipilimumab, for the presence of CD45^+CD8^+ infiltrating T lymphocytes.

[3] = tested on: breast cancer cell line MDA-MB-231; assay: Tumor growth of PD-L1+ MDA-MB-231 breast cancer model in non-HLA matched Hu-CD34 NSG mice; type: in vivo, mouse; details: for tumor growth of MDA-MB-231 tumors: growth curves over 21 days, cisplatin i.v. about 2 mg/kg Q7dx2
Protocol: First, to determine if the checkpoint inhibitor pembrolizumab (Keytruda) is efficacious in the subject non-HLA matched PDX humanized NSG model, a PDX huNSG model was established according to the methods of the invention. […] This cell line expresses very high levels of PD-L1 on the tumor cell surface that can bind to PD-1 on T-cells and induce anergy—about 94.3% of the MDA-MB-231 cells expressed PD-L1. The tumor-engrafted humanized NSG mice were then treated either with vehicle, Cisplatin, or Prembrolizumab (Keytruda).
(§1) Tumor growth curves over 21 days were obtained for a negative control/vehicle group, and two treatment groups using cisplatin and pembrolizumab (Keytruda), respectively, against the MDA-MB-231 PDX. Specifically, cisplatin was administered i.v. at a dose of about 2 mg/kg body weight, Q7d×2 (every 7 days, 2 total doses). Pembrolizumab (Keytruda) was administered i.p. at a dose of about 5-10 mg/kg body weight, Q5d×4 (every 5 days, 4 total doses). Vehicle (Saline) was administered i.p., Q5d×4.
At the termination of the growth study, peripheral blood of the experimental mice were collected and assayed for human CD19^+ B cells and human CD4^+ and CD8^+ T-cells.
Tumors were also collected and assayed for human CD4^+ and CD8^+ infiltrating T-cells.

breast cancer BR1126 PDX = assay: Tumor growth of PD-L1+ TNBC BR1126 breast cancer PDX in non-HLA matched Hu-CD34 NSG mice; type: in vivo, mouse; details: for tumor growth compared to the vehicle control: growth curves over 21 days, cisplatin i.v. about 2 mg/kg Q7dx3, Keytruda i.p. about 5-10 mg/kg Q5dx4
Protocol: Specifically, humanized NSG mice were engrafted with 5×10^6 of non-HLA matched PD-L1-positive breast cancer cell line BR1126 cells per mouse via s.c. inoculation. This can be done with the presence of matrigel. About 56.9% of the BR1126 cells expressed PD-L1.
as §1, with “the BR1126” for “the MDA-MB-231”, “weight, Q7d×3” for “weight, Q7d×2”, “days, 3” for “days, 2”
Tumors from the Keytruda-treated mice were collected at the end of the study and examined for lymphocyte infiltration.

[4] = tested on: non-small-cell lung cancer, melanoma, and renal-cell cancer; details: 296 patients; cited from earlier work
lung cancer LG1306 PDX = assay: Tumor growth of PD-L1+ LG1306 lung cancer PDX in non-HLA matched Hu-CD34 NSG mice; type: in vivo, mouse
Protocol: Specifically, humanized NSG mice were engrafted with 5×10^6 of non-HLA matched PD-L1-positive PDX lung cancer cell line LG1306 per mouse. About 89.1% of the LG1306 cells expressed PD-L1.
Tumor growth curves over 24 days were obtained for a negative control/vehicle group, and two treatment groups using pembrolizumab (Keytruda), with or without the anti-mitotic chemotherapeutic agent Decotaxol, against the LG1306 PDX. Specifically, Decetaxol, when present, was administered i.v. at a dose of about 10 mg/kg body weight, Q7d×4 (every 7 days, 4 total doses). Pembrolizumab (Keytruda) was administered i.p. at a dose of about 5 mg/kg body weight, Q5d×6 (every 5 days, 6 total doses). Vehicle (Saline) was administered i.p., Q5d×6.

[5] = Keytruda i.p. about 5-10 mg/kg Q5dx4

Row | Molecule | efficacy against the non-HLA matched colon cancer PDX (tumor volume) [1] | presence of CD45+CD8+ infiltrating T lymphocytes in PDX tumor samples [2] | tumor growth of MDA-MB-231 tumors [3, 5] | tumor growth compared to the vehicle control (breast cancer BR1126 PDX) | further results
1 | O=c1[nH]cc(F)c(=O)[nH]1 [5-FU] | effective |  |  |  | 
2 | ipilimumab: anti-CTLA4 agent; FDA-approved CTLA-4 inhibitor for treating melanoma |  | strong presence |  |  | 
3 | N.N.[Cl][Pt][Cl] [Cisplatin, cisplatin] |  |  | only marginally reduced the growth rate | significantly reduced tumor growth | 
4 | nivolumab: fully human IgG4 monoclonal antibody against PD-1 |  |  |  |  | clinical response [4]: complete or partial responses
5 | Keytruda: anti-PD-1 antibody drug; highly selective, humanized IgG4-kappa monoclonal antibody against PD-1 |  | strong presence | delayed tumor growth significantly | significantly reduced tumor growth | mice not responding (lung cancer LG1306 PDX; Keytruda alone): one of 10; tumor growth of LG1306 PDX compared to vehicle-treated controls (lung cancer LG1306 PDX; growth curves over 24 days, Keytruda i.p. about 5 mg/kg Q5dx6, Docetaxel i.v. about 10 mg/kg Q7dx4, all mice): reduced growth; also recorded: effective; tumor growth, non-responding mouse taken out of the calculations (lung cancer LG1306 PDX; one Keytruda non-responder excluded): significant decrease in tumor growth; time after start of treatment to significant tumor growth delay [3, 5]: ≤ 2 weeks; human T and B cells in peripheral blood and infiltrating T cells (TILs) in tumors versus other treatment groups ([3]; at termination of the growth study): absence of additional TILs; tumor lymphocyte infiltration compared to the vehicle treated mice (breast cancer BR1126 PDX; tumors collected at the end of the study): did not increase tumor infiltration
6 | Avastin: clinically relevant standard-of-care (SOC) anti-cancer drug | effective |  |  |  | 
